Where a name gives a salt, the structure may show the parent alone. Bounds are passed on as bounds.

In ChEMBL document CHEMBL4118032, “Geranylpyrrol A and Piericidin F from Streptomyces sp. CHQ-64 ΔrdmF” (J Nat Prod, 2017) one finds IC50 data, which are given here for three compounds.

Common to all, as to type: functional, cell-based
For one experiment, the system named is K562. As to the kind of experiment: Cytotoxicity against human K562 cells after 72 hrs by MTT assay. Conditions: K562, 72 h. Background: Tetrazolium dyes change colour on reduction, which living cells bring about.
The test system of another experiment is HCT-116. As to the kind of experiment: Cytotoxicity against human HCT116 cells after 24 hrs by sulforhodamine B assay. Conditions: HCT-116, 24 h.
In the next experiment the test system is NCI-H1975. As to the kind of experiment: Cytotoxicity against human NCI-H1975 cells after 24 hrs by sulforhodamine B assay. As to conditions: NCI-H1975, 24 h. On the technique in general: Sulforhodamine B stains cellular protein and so reports cell mass.
In a further experiment the test system is HL-60. Briefly: Cytotoxicity against human HL60 cells after 72 hrs by MTT assay. Conditions: HL-60, 72 h.
The subject of another experiment is A549. Briefly: Cytotoxicity against human A549 cells after 24 hrs by sulforhodamine B assay. As to conditions: A549, 24 h.
In the next experiment the test system is NB-4. As to the kind of experiment: Cytotoxicity against human NB4 cells after 72 hrs by MTT assay. As to conditions: NB-4, 72 h.
A further experiment relates to HeLa. Briefly: Cytotoxicity against human HeLa cells after 24 hrs by sulforhodamine B assay.
Experiment [1] can be described thus: Cytotoxicity against human MCF7/ADM cells after 24 hrs by sulforhodamine B assay.

As a reminder, the IC50 is the point on the concentration scale where inhibition reaches its midpoint. Low readings indicate inhibition by little substance, high ones a need for much substance. For the compound `C/C=C(\C)[C@H](OC)[C@H](C)/C=C(C)/C=C/C/C(C)=C/Cc1nc(OC)cc(O)c1C`, the 50% inhibitory concentration (IC50) is greater than 30 µM with K562; greater than 30 µM in the experiment with HCT-116; 0.49 µM in the experiment with NCI-H1975; greater than 30 µM with HL-60; 0.56 µM with A549; 0.037 µM with NB-4. Moreover, the IC50 in the experiment on HeLa was 0.003 µM; in experiment [1], greater than 30 µM.
As for `COc1cccc2c1C(=O)c1c(O)c3c(c(O)c1C2=O)C[C@@](O)(C(=O)CO)C[C@@H]3O[C@H]1C[C@H](N)[C@H](O)[C@H](C)O1` [DOXORUBICIN HYDROCHLORIDE], the results for the IC50 (in the experiment on NCI-H1975; in the experiment on NB-4; in experiment [1]) were 0.2 µM, 0.4 µM and 25.2 µM, respectively.
`COC(=O)c1[nH]cc(C/C=C(\C)CCC=C(C)C)c1NC(C)=O`: the half-inhibitory concentration (IC50) in the experiment with K562, in the experiment with HCT-116, in the experiment with NCI-H1975, in the experiment on HL-60, in the experiment on A549 and in the experiment on NB-4 was greater than 30 µM each time. The IC50 (in the experiment on HeLa; in experiment [1]) was greater than 30 µM throughout.
